Reference: US8952024B2, “Herbicidal pyrimidone derivatives” (E I du Pont de Nemours and Company, priority 2009, dated 2015)

Tests used:
Format in all cases: in vivo
[1] = system: chickweed (Stellaria media); experiment: Test B postemergence plant response; details: for Chickweed plant response rating (0 to 100 scale): 62 g ai/ha, 0 is no effect, 13 to 15 days
Outline: (§1)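 Plants at the 1- to 4-leaf stage (2 to 18 cm tall), grown in pots of peat moss/vermiculite medium with wetting agent and starter nutrients, received postemergence applications of test chemicals. After 13 to 15 days in a greenhouse, injury was rated visually against untreated controls on a 0 (no effect) to 100 (complete control) scale.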

[2] = system: canarygrass (Phalaris minor); experiment: Test B postemergence plant response; details: for Canarygrass plant response rating (0 to 100 scale): 62 g ai/ha, 0 is no effect, 13 to 15 days
Outline: as §1

[3] = system: windgrass (Apera spica-venti); experiment: Test B postemergence plant response; details: for Windgrass plant response rating (0 to 100 scale): 62 g ai/ha, 0 is no effect, 13 to 15 days
Outline: as §1

[4] = system: winter barley (Hordeum vulgare); experiment: Test B postemergence plant response; details: for Barley plant response rating (0 to 100 scale): 62 g ai/ha, 0 is no effect, 13 to 15 days
Outline: as §1

[5] = system: velvetleaf (Abutilon theophrasti); experiment: Test A pre-/postemergence plant response
Outline: (§2)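 Approximately ten days after concurrent pre- and postemergence spraying in a greenhouse, plants were compared with untreated controls and rated visually for injury, 0 = no effect to 100 = complete control. Preemergence spray was directed onto loam/sand soil; postemergence targeted 1–2 leaf seedlings.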

[6] = system: pigweed (Amaranthus retroflexus); experiment: Test A pre-/postemergence plant response
Outline: as §2

[7] = system: morningglory (Ipomoea spp.); experiment: Test A pre-/postemergence plant response
Outline: as §2

[8] = system: barnyardgrass (Echinochloa crus-galli); experiment: Test A pre-/postemergence plant response
Outline: as §2

[9] = system: giant foxtail (Setaria faberii); experiment: Test A pre-/postemergence plant response
Outline: as §2

corn (Zea mays) = experiment: Test A pre-/postemergence plant response
Outline: as §2

[10] = system: large crabgrass (Digitaria sanguinalis); experiment: Test A pre-/postemergence plant response
Outline: as §2

[11] = system: wheat (Triticum aestivum); experiment: Test A pre-/postemergence plant response
Outline: as §2

[12] = 31 g ai/ha, postemergence, scale 0 to 100, 0 is no effect, 100 is complete control
[13] = postemergence, 100 is complete control
[14] = Postemergence, 125 g ai/ha, visual rating after 13 to 15 days, scale 0 (no effect) to 100 (complete control)
[15] = Postemergence, 250 g ai/ha, scale 0 to 100 (0 no effect, 100 complete control)
[16] = Postemergence, 125 g ai/ha, 0 to 100 scale where 0 is no effect and 100 is complete control
[17] = Postemergence, 500 g ai/ha, 0 to 100 scale, 0 = no effect, 100 = complete control, approx. ten days
[18] = Preemergence, 125 g ai/ha, 0 to 100 scale, 0 = no effect, 100 = complete control
[19] = Preemergence, 500 g ai/ha, visual injury, 0 to 100 scale (0 no effect, 100 complete control), approx. ten days

## CCCCCn1c(-c2ccccc2)ncc(C(=O)C2=C(O)CCCC2=O)c1=O [Compound 89]
[1]; [12]
  Plant response rating, Chickweed: 75
[1]; [13]
  Chickweed plant response rating (0 to 100 scale): 80
[1]; [14]
  Plant response rating, Chickweed: 98
[1]; [15]
  Plant response rating, Chickweed: 98
[2]; [12]
  Plant response rating, Canarygrass: 10
[2]; [13]
  Canarygrass plant response rating (0 to 100 scale): 35
[2]; [14]
  Plant response rating, Canarygrass: 50
[2]; [15]
  Plant response rating, Canarygrass: 60
[3]; [12]
  Plant response rating, Windgrass: 0
[3]; [13]
  Windgrass plant response rating (0 to 100 scale): 5
[3]; [15]
  Plant response rating, Windgrass: 50
[4]; [12]
  Plant response rating, Barley: 0
[4]; [13]
  Barley plant response rating (0 to 100 scale): 5
[4]; [14]
  Plant response rating, Barley: 10
[4]; [15]
  Plant response rating, Barley: 20
[5]; [16]
  Plant response rating, Velvetleaf: 100
[5]; [17]
  Plant response rating, Velvetleaf: 100
[5]; [18]
  Plant response rating, Velvetleaf: 70
[5]; [19]
  Plant response rating, Velvetleaf: 100
[6]; [16]
  Plant response rating, Pigweed: 100
[6]; [17]
  Plant response rating, Pigweed: 100
[6]; [18]
  Plant response rating, Pigweed: 90
[6]; [19]
  Plant response rating, Pigweed: 100
[7]; [16]
  Plant response rating, Morningglory: 100
[7]; [17]
  Plant response rating, Morningglory: 100
[7]; [18]
  Plant response rating, Morningglory: 0
[7]; [19]
  Plant response rating, Morningglory: 70
[8]; [16]
  Plant response rating, Barnyardgrass: 90
[8]; [17]
  Plant response rating, Barnyardgrass: 90
[8]; [18]
  Plant response rating, Barnyardgrass: 20
[8]; [19]
  Plant response rating, Barnyardgrass: 80
[9]; [16]
  Plant response rating, Foxtail, Giant: 60
[9]; [17]
  Plant response rating, Foxtail, Giant: 90
[9]; [18]
  Plant response rating, Foxtail, Giant: 20
[9]; [19]
  Plant response rating, Foxtail, Giant: 70
Corn (Zea mays); [16]
  Plant response rating, Corn: 0
Corn (Zea mays); [17]
  Plant response rating, Corn: 10
Corn (Zea mays); [18]
  Plant response rating, Corn: 0
Corn (Zea mays); [19]
  Plant response rating, Corn: 0
[10]; [16]
  Plant response rating, Crabgrass, Large: 90
[10]; [17]
  Plant response rating, Crabgrass, Large: 100
[10]; [18]
  Plant response rating, Crabgrass, Large: 60
[10]; [19]
  Plant response rating, Crabgrass, Large: 90
[11]; [16]
  Plant response rating, Wheat: 0
[11]; [17]
  Plant response rating, Wheat: 20
[11]; [18]
  Plant response rating, Wheat: 0
[11]; [19]
  Plant response rating, Wheat: 30

## CC(C)n1c(-c2ccccc2)ncc(C(=O)C2=C(O)CCCC2=O)c1=O [Compound 95]
[1]; [12]
  Plant response rating, Chickweed: 75
[1]; [13]
  Chickweed plant response rating (0 to 100 scale): 85
[1]; [14]
  Plant response rating, Chickweed: 98
[1]; [15]
  Plant response rating, Chickweed: 100
[2]; [12]
  Plant response rating, Canarygrass: 0
[2]; [13]
  Canarygrass plant response rating (0 to 100 scale): 0
[2]; [14]
  Plant response rating, Canarygrass: 0
[2]; [15]
  Plant response rating, Canarygrass: 0
[3]; [12]
  Plant response rating, Windgrass: 0
[3]; [13]
  Windgrass plant response rating (0 to 100 scale): 0
[3]; [15]
  Plant response rating, Windgrass: 0
[4]; [12]
  Plant response rating, Barley: 0
[4]; [13]
  Barley plant response rating (0 to 100 scale): 0
[4]; [14]
  Plant response rating, Barley: 0
[4]; [15]
  Plant response rating, Barley: 0
[5]; [16]
  Plant response rating, Velvetleaf: 100
[5]; [17]
  Plant response rating, Velvetleaf: 100
[5]; [18]
  Plant response rating, Velvetleaf: 90
[5]; [19]
  Plant response rating, Velvetleaf: 100
[6]; [16]
  Plant response rating, Pigweed: 100
[6]; [17]
  Plant response rating, Pigweed: 100
[6]; [18]
  Plant response rating, Pigweed: 90
[6]; [19]
  Plant response rating, Pigweed: 100
[7]; [16]
  Plant response rating, Morningglory: 100
[7]; [17]
  Plant response rating, Morningglory: 100
[7]; [18]
  Plant response rating, Morningglory: 70
[7]; [19]
  Plant response rating, Morningglory: 90
[8]; [16]
  Plant response rating, Barnyardgrass: 80
[8]; [17]
  Plant response rating, Barnyardgrass: 90
[8]; [18]
  Plant response rating, Barnyardgrass: 40
[8]; [19]
  Plant response rating, Barnyardgrass: 80
[9]; [16]
  Plant response rating, Foxtail, Giant: 70
[9]; [17]
  Plant response rating, Foxtail, Giant: 90
[9]; [18]
  Plant response rating, Foxtail, Giant: 30
[9]; [19]
  Plant response rating, Foxtail, Giant: 60
Corn (Zea mays); [16]
  Plant response rating, Corn: 0
Corn (Zea mays); [17]
  Plant response rating, Corn: 10
Corn (Zea mays); [18]
  Plant response rating, Corn: 0
Corn (Zea mays); [19]
  Plant response rating, Corn: 0
[10]; [16]
  Plant response rating, Crabgrass, Large: 90
[10]; [17]
  Plant response rating, Crabgrass, Large: 90
[10]; [18]
  Plant response rating, Crabgrass, Large: 50
[10]; [19]
  Plant response rating, Crabgrass, Large: 90
[11]; [16]
  Plant response rating, Wheat: 0
[11]; [17]
  Plant response rating, Wheat: 0
[11]; [18]
  Plant response rating, Wheat: 0
[11]; [19]
  Plant response rating, Wheat: 0
